These results are taken from patent US4894382A, “Substituted 1,3-diazolyl-2-propanols and their use as antimycotic agents” (Bayer Aktiengesellschaft, priority 1983, dated 1990).

For one test, the system named is Trichophyton mentagr. Kind of test: Antimycotic in vitro activity (series dilution test), Trichophyton mentagr. It is filed as cell-based, Trichophyton mentagrophytes. The conditions noted are these: Sabourand's milieu d'epreuve, 5×10^4 germs/ml, 20° C., 96 hours, read-out: MIC values in Y/ml of nutrient medium for Trichophyton mentagr. On the procedure: (§1) Antimycotic in vitro activity
(§2) The in vitro tests were carried out in a series dilution test using germ inocula of on average 5×10^4 germs/ml of substrate. The nutrient medium used was (a) for dermatophytes and moulds: Sabourand's milieu d'epreuve, and (b) for yeasts: meat extract/glucose broth.
(§3) The incubation temperature was 20° C. and the incubation time was 24 to 96 hours for yeasts and 96 hours for dermatophytes and moulds.

The next test relates to Microsporum canis. Kind of test: Antimycotic in vitro activity (series dilution test), Microsporum canis. Type of test: cell-based. The following applies: Sabourand's milieu d'epreuve, 5×10^4 germs/ml, 20° C., 96 hours, read-out: MIC values in Y/ml of nutrient medium for Microsporum canis. The protocol:
as §1, §2, §3

Another test concerns Candida albicans. Kind of test: Antimycotic in vitro activity (series dilution test), Candida albicans. Type of test: cell-based. The following applies: meat extract/glucose broth, 5×10^4 germs/ml, 20° C., 24 to 96 hours, read-out: MIC values in Y/ml of nutrient medium for Candida albicans. The protocol: as §1, §2, §3
The test system of a further test is Torulopsis glabrata. As to the kind of experiment: Antimycotic in vitro activity (series dilution test), Torulopsis glabrata. It is filed as cell-based. The conditions noted are these: Nakaseomyces glabratus; meat extract/glucose broth; 5×10^4 germs/ml; 20° C.; 24 to 96 hours; read-out: MIC values in Y/ml of nutrient medium for Torulopsis glabrata. The protocol:
as §1, §2, §3

In a further test the test system is Aspergillus fumigatus. Kind of test: Antimycotic in vitro activity (series dilution test), Aspergillus fumigatus. It is filed as cell-based. The following applies: Sabourand's milieu d'epreuve, 5×10^4 germs/ml, 20° C., 96 hours, read-out: MIC values in Y/ml of nutrient medium for Aspergillus fumigatus. The protocol:
as §1, §2, §3

The subject of test [1] is dermatophytes, moulds and yeasts. As to the kind of experiment: Antimycotic in vitro activity (series dilution test), overall. Type of test: cell-based. On the procedure: as §1, §2, §3
In the next test the test system is Candida. Kind of test: Antimycotic in vivo action (oral) in candidosis of mice. The conditions noted are these: 10-50 mg/kg one hour before and seven hours after i.v. infection. Also noted: species or system mice of the SPF-CF1 type. On the procedure:
Antimycotic in vivo action (oral) in candidosis of mice
Mice of the SPF-CF1 type were infected intravenously with 1-2×10^6 logarithmically growing Candida cells, suspended in physiological saline solution. The animals were treated orally one hour before and seven hours after the infection, with in each case 10-50 mg/kg of body weight of the products.
Untreated animals died 3 to 6 days after infection. The survival rate on the 6th day after infection was about 5% in the case of untreated animals.

Molecules are shown by their SMILES. In brackets after ≈: the same amount, converted by molar mass.

In the case of `CC(C)(Cc1ccc(Cl)cc1Cl)C(O)(Cn1cncn1)Cn1cncn1` [Example 1, 4-(2,4-dichlorophenyl)-3,3-dimethyl-2-(1,2,4-triazol-1-yl-methyl)-1-(1,2,4-triazol-1-yl)-2-butanol], the MIC in the test with Trichophyton mentagr. is 1 µg/mL (≈ 2.53 µM); in the test with Microsporum canis, 32 µg/mL (≈ 81 µM); in the test on Candida albicans, 32 µg/mL (≈ 81 µM); in the test with Torulopsis glabrata, 64 µg/mL (≈ 162 µM); with Aspergillus fumigatus, 32 µg/mL (≈ 81 µM). The “antimycotic action in vitro (in words)” value in test [1] was “good antimycotic action”. In the test with Candida, the “Action (survivors on the 6th day after infection)” value is “+++++ (very good action=90% survivors on the 6th day after infection)”. In the test on Candida, the “action in candidosis of mice (in words)” value is recorded as “good to very good action”.

For `CC(C)(Cc1ccc(Cl)cc1)C(O)(Cn1cncn1)Cn1cncn1` [Example 2], the MIC was determined as 1 µg/mL (≈ 2.77 µM) in the test with Trichophyton mentagr.; 4 µg/mL (≈ 11.1 µM) with Microsporum canis; 4 µg/mL (≈ 11.1 µM) with Candida albicans; 16 µg/mL (≈ 44.3 µM) in the test on Torulopsis glabrata; 4 µg/mL (≈ 11.1 µM) with Aspergillus fumigatus. The “antimycotic action in vitro (in words)” value in test [1] is on record as “good antimycotic action”. In addition, the “Action (survivors on the 6th day after infection)” value in the test with Candida was “+++++ (very good action=90% survivors on the 6th day after infection)”. In addition, the “action in candidosis of mice (in words)” value with Candida is “good to very good action”.

Take `Cc1ccc(CC(C)(C)C(O)(Cn2cncn2)Cn2cncn2)cc1` [Example 3]: the MIC was determined as 1 µg/mL (≈ 2.94 µM) with Trichophyton mentagr.; 8 µg/mL (≈ 23.5 µM) with Microsporum canis; 16 µg/mL (≈ 47 µM) in the test on Candida albicans; 64 µg/mL (≈ 188 µM) in the test with Torulopsis glabrata; 4 µg/mL (≈ 11.7 µM) in the test with Aspergillus fumigatus. Besides, the “antimycotic action in vitro (in words)” value in test [1] is reported as “good antimycotic action”. In addition, in the test on Candida, the “Action (survivors on the 6th day after infection)” value was “++++ (good action=80% survivors on the 6th day after infection)”. For the same compound, the “action in candidosis of mice (in words)” value with Candida is on record as “good to very good action”.

`CC(C)(CSc1ccc(Cl)cc1)C(O)(Cn1cncn1)Cn1cncn1` [Example 5]: the MIC with Trichophyton mentagr. came to 1 µg/mL (≈ 2.55 µM); in the test on Microsporum canis, 32 µg/mL (≈ 81.4 µM); with Candida albicans, 32 µg/mL (≈ 81.4 µM); in the test on Torulopsis glabrata, 64 µg/mL (≈ 163 µM); in the test with Aspergillus fumigatus, 32 µg/mL (≈ 81.4 µM). For the same compound, the “antimycotic action in vitro (in words)” value in test [1] is given as “good antimycotic action”. Besides, in the test with Candida, the “Action (survivors on the 6th day after infection)” value was “++++ (good action=80% survivors on the 6th day after infection)”. Besides, in the test with Candida, the “action in candidosis of mice (in words)” value was “good to very good action”.

`CC(C)(Oc1ccc(Cl)cc1)C(O)(Cn1cncn1)Cn1cncn1` [Example 6]: the MIC with Trichophyton mentagr. was determined as 32 µg/mL (≈ 88.2 µM); in the test on Candida albicans, 4 µg/mL (≈ 11 µM); in the test with Torulopsis glabrata, 16 µg/mL (≈ 44.1 µM); with Aspergillus fumigatus, 64 µg/mL (≈ 176 µM). In addition, the “antimycotic action in vitro (in words)” value in test [1] was “good antimycotic action”. Further, the “Action (survivors on the 6th day after infection)” value with Candida was “++++ (good action=80% survivors on the 6th day after infection)”. The “action in candidosis of mice (in words)” value in the test on Candida was “good to very good action”.

With `CC(C)(Cc1ccc(Cl)cc1)C(O)(Cn1ccnc1)Cn1cncn1` (centres unmarked) [Example 8], in the test on Candida, the “Action (survivors on the 6th day after infection)” value is “++++ (good action=80% survivors on the 6th day after infection)” and the “action in candidosis of mice (in words)” value was “good to very good action”.
